Each structure is given as a SMILES string.

The subject of the assay is Glomerella lagenarium (Colletotrichum lagenarium). The assay is described as follows: Fungicidal activity against Glomerella lagenarium (Colletotrichum lagenarium) liquid culture / cucumber / preventative (anthracnose). The class given is cell-based. The settings on record: Colletotrichum orbiculare; 20 ppm in the applied formulation; liquid culture (PDB), growth inhibition measured photometrically after 3 to 4 days; compared to untreated control; read-out: disease control. How it is done: Mycelia fragments or conidia suspensions of a fungus prepared either freshly from liquid cultures of the fungus or from cryogenic storage, are directly mixed into nutrient broth. DMSO solutions of the test compound (max. 10 mg/ml) are diluted with 0.025% Tween20 by a factor of 50 and 10 μl of this solution is pipetted into a microtiter plate (96-well format). The nutrient broth containing the fungal spores/mycelia fragments is then added to give an end concentration of the tested compound. The test plates are incubated in the dark at 24° C. and 96% relative humidity. The inhibition of fungal growth is determined photometrically after 2 to 7 days, depending on the pathosystem, and percent antifungal activity relative to the untreated check is calculated.
Fungicidal activity against Glomerella lagenarium (Colletotrichum lagenarium) liquid culture/cucumber/Preventative (Anthracnose)
Conidia of the fungus from cryogenic storage are directly mixed into nutrient broth (PDB—potato dextrose broth). After placing a (DMSO) solution of test compound into a microtiter plate (96-well format), the nutrient broth containing the fungal spores is added.
The following compounds at 20 ppm in the applied formulation give at least 80% disease control in this test when compared to untreated control under the same conditions, which show extensive disease development.
Turning to `COCC(=O)N(Cc1ccc(-c2noc(C(F)(F)F)n2)cc1)OCC=C(Cl)Cl` [Compound 1.535, N-(3,3-dichloroallyloxy)-2-methoxy-N-[[4-[5-(trifluoromethyl)-1,2,4-oxadiazol-3-yl]phenyl]methyl]-acetamide], the inhibition of growth at 20 ppm is at least 80%.
The same measure for `CCCCON(Cc1ccc(-c2noc(C(F)(F)F)n2)cc1)C(=O)C1CCC1` [Compound 1.638, N-butoxy-N-[[4-[5-(trifluoromethyl)-1,2,4-oxadiazol-3-yl]phenyl]methyl]-cyclobutane-carboxamide]: at least 80%.
As for `COCC(=O)N(Cc1ccc(-c2noc(C(F)(F)F)n2)cc1)OCc1ccc(Cl)cc1` [Compound 1.551, N-[(4-chlorophenyl)-methoxy]-2-methoxy-N-[[4-[5-(trifluoromethyl)-1,2,4-oxadiazol-3-yl]phenyl]methyl]-acetamide], the inhibition of growth at 20 ppm is at least 80%.
On to `CC1(C(=O)N(Cc2ccc(-c3noc(C(F)(F)F)n3)cc2)C2CC2)CCCCC1` [Compound 1.108, N-cyclopropyl-1-methyl-N-[[4-[5-(trifluoromethyl)-1,2,4-oxadiazol-3-yl]phenyl]methyl]-cyclohexane-carboxamide], for which the inhibition of growth at 20 ppm is at least 80%.
In the case of `CCCON(Cc1ccc(-c2noc(C(F)(F)F)n2)cc1)C(=O)C1(C)CC1` [Compound 1.302, 1-methyl-N-propoxy-N-[[4-[5-(trifluoromethyl)-1,2,4-oxadiazol-3-yl]phenyl]methyl]-cyclopropane-carboxamide], the inhibition of growth at 20 ppm was at least 80%.
`CC#CC(=O)N(Cc1ccc(-c2noc(C(F)(F)F)n2)cc1)OCCC` [Compound 1.282, N-propoxy-N-[[4-[5-(trifluoromethyl)-1,2,4-oxadiazol-3-yl]phenyl]methyl]but-2-ynamide]: the inhibition of growth at 20 ppm is at least 80%.
Turning to `C#CCC(NS(=O)(=O)CC)C(=O)N(Cc1ccc(-c2noc(C(F)(F)F)n2)cc1)CC1CC1` (stereo not shown) [Compound 1.239, N-(cyclopropylmethyl)-2-(ethylsulfonylamino)-N-[[4-[5-(trifluoromethyl)-1,2,4-oxadiazol-3-yl]phenyl]methyl]-pent-4-ynamide], the inhibition of growth at 20 ppm is at least 80%.
For `CON(C(=O)c1ccoc1)C(C)c1ccc(-c2noc(C(F)(F)F)n2)cc1` (stereo not shown) [Compound 1.278, N-methoxy-N-[1-[4-[5-(trifluoromethyl)-1,2,4-oxadiazol-3-yl]phenyl]ethyl]furan-3-carboxamide], the inhibition of growth at 20 ppm was at least 80%.
For `CCCON(Cc1ccc(-c2noc(C(F)(F)F)n2)cc1)C(=O)CCOC` [Compound 1.293, 3-methoxy-N-propoxy-N-[[4-[5-(trifluoromethyl)-1,2,4-oxadiazol-3-yl]phenyl]methyl]-propanamide] the value was at least 80%; for `CON(Cc1ccc(-c2noc(C(F)(F)F)n2)cc1)C(=O)OC(Cl)C(C)C` (stereo not shown) [Compound 2.19, (1-chloro-2-methyl-propyl) N-methoxy-N-[[4-[5-(trifluoromethyl)-1,2,4-oxadiazol-3-yl]phenyl]methyl]-carbamate], at least 80%; for `CCCON(Cc1ccc(-c2noc(C(F)(F)F)n2)cc1)C(=O)CC` [Compound 1.303, N-propoxy-N-[[4-[5-(trifluoromethyl)-1,2,4-oxadiazol-3-yl]phenyl]methyl]-propanamide], at least 80%.
For `CCCCCOC(=O)N(Cc1ccc(-c2noc(C(F)(F)F)n2)cc1)OC` [Compound 2.9, pentyl N-methoxy-N-[[4-[5-(trifluoromethyl)-1,2,4-oxadiazol-3-yl]phenyl]methyl]-carbamate] the value was at least 80%.
For the compound `CON(Cc1ccc(-c2noc(C(F)(F)F)n2)cc1)C(=O)n1ccnc1` [Compound 1.811, N-methoxy-N-[[4-[5-(trifluoromethyl)-1,2,4-oxadiazol-3-yl]phenyl]methyl]-imidazole-1-carboxamide], the inhibition of growth at 20 ppm was at least 80%.
In the case of `CON(Cc1ccc(-c2noc(C(F)(F)F)n2)cc1)C(=O)OCc1ccccc1` [Compound 2.10, benzyl N-methoxy-N-[[4-[5-(trifluoromethyl)-1,2,4-oxadiazol-3-yl]phenyl]methyl]-carbamate], the inhibition of growth at 20 ppm was at least 80%.
The same measure for `CC1(C(=O)N(Cc2ccc(-c3noc(C(F)(F)F)n3)cc2)OCc2ccc(Cl)cc2)COC1` [Compound 1.556, N-[(4-chlorophenyl)-methoxy]-3-methyl-N-[[4-[5-(trifluoromethyl)-1,2,4-oxadiazol-3-yl]phenyl]methyl]-oxetane-3-carboxamide]: at least 80%; for `CC(C)(C)CC(=O)N(Cc1ccc(-c2noc(C(F)(F)F)n2)cc1)CC1CCCO1` (stereo not shown) [Compound 1.429, 3,3-dimethyl-N-(tetrahydrofuran-2-ylmethyl)-N-[[4-[5-(trifluoromethyl)-1,2,4-oxadiazol-3-yl]phenyl]methyl]-butanamide]: at least 80%; for `O=C(C1CC1(F)F)N(Cc1ccc(-c2noc(C(F)(F)F)n2)cc1)OCC=C(Cl)Cl` (stereo not shown) [Compound 1.540, N-(3,3-dichloroallyloxy)-2,2-difluoro-N-[[4-[5-(trifluoromethyl)-1,2,4-oxadiazol-3-yl]phenyl]methyl]-cyclopropane-carboxamide]: at least 80%.
As for `COCCC(=O)N(Cc1ccc(-c2noc(C(F)(F)F)n2)cc1)OCc1ccc(Cl)cc1` [Compound 1.549, N-[(4-chlorophenyl)-methoxy]-3-methoxy-N-[[4-[5-(trifluoromethyl)-1,2,4-oxadiazol-3-yl]phenyl]methyl]-propanamide], the inhibition of growth at 20 ppm is at least 80%.
In the case of `CCCCON(Cc1ccc(-c2noc(C(F)(F)F)n2)cc1)C(=O)CC1CC1` [Compound 1.650, N-butoxy-2-cydopropyl-N-[[4-[5-(trifluoromethyl)-1,2,4-oxadiazol-3-yl]phenyl]methyl]-acetamide], the inhibition of growth at 20 ppm was at least 80%.
As for `COc1ccccc1C(=O)N(Cc1ccc(-c2noc(C(F)(F)F)n2)cc1)OC` [Compound 1.7, N,2-dimethoxy-N-[[4-[5-(trifluoromethyl)-1,2,4-oxadiazol-3-yl]phenyl]methyl]-benzamide], the inhibition of growth at 20 ppm was at least 80%.
For `O=C(CC1CC1)N(Cc1ccc(-c2noc(C(F)(F)F)n2)cc1)CC1CC1` [Compound 1.211, 2-cyclopropyl-N-(cyclopropylmethyl)-N-[[4-[5-(trifluoromethyl)-1,2,4-oxadiazol-3-yl]phenyl]methyl]-acetamide], the inhibition of growth at 20 ppm was at least 80%.
In the case of `CON(C(=O)C1CCCC1)C(C)c1ccc(-c2noc(C(F)(F)F)n2)cc1` (stereo not shown) [Compound 1.257], the inhibition of growth at 20 ppm was at least 80%.
The same measure for `O=C(C1CC1F)N(Cc1ccc(-c2noc(C(F)(F)F)n2)cc1)OCC=C(Cl)Cl` (stereo not shown) [Compound 1.545, N-(3,3-dichloroallyloxy)-2-fluoro-N-[[4-[5-(trifluoromethyl)-1,2,4-oxadiazol-3-yl]phenyl]methyl]-cyclopropane-carboxamide]: at least 80%; for `CCCON(Cc1ccc(-c2noc(C(F)(F)F)n2)cc1)C(=O)CCCOC` [Compound 1.321, 4-methoxy-N-propoxy-N-[[4-[5-(trifluoromethyl)-1,2,4-oxadiazol-3-yl]phenyl]methyl]-butanamide]: at least 80%.
With `CCC(=O)N(Cc1ccc(-c2noc(C(F)(F)F)n2)cc1)OCC=C(Cl)Cl` [Compound 1.534, N-(3,3-dichloroallyloxy)-N-[[4-[5-(trifluoromethyl)-1,2,4-oxadiazol-3-yl]phenyl]methyl]-propanamide], the inhibition of growth at 20 ppm is at least 80%.
Regarding `C=CC(=O)N(Cc1ccc(-c2noc(C(F)(F)F)n2)cc1)OCCC` [Compound 1.301, N-propoxy-N-[[4-[5-(trifluoromethyl)-1,2,4-oxadiazol-3-yl]phenyl]methyl]-prop-2-enamide], the inhibition of growth at 20 ppm was at least 80%.
Regarding `O=C(C1CC1c1ccccc1)N(Cc1ccc(-c2noc(C(F)(F)F)n2)cc1)C1CC1` (stereo not shown) [Compound 1.98, N-cyclopropyl-2-phenyl-N-[[4-[5-(trifluoromethyl)-1,2,4-oxadiazol-3-yl]phenyl]methyl]-cyclopropane-carboxamide], the inhibition of growth at 20 ppm was at least 80%.
Turning to `CCC(C)N(Cc1ccc(-c2noc(C(F)(F)F)n2)cc1)C(=O)C1CCC1` (stereo not shown) [Compound 1.381, N-sec-butyl-N-[[4-[5-(trifluoromethyl)-1,2,4-oxadiazol-3-yl]phenyl]methyl]-cyclobutane-carboxamide], the inhibition of growth at 20 ppm is at least 80%.
Consider `O=C(C1CC1(Cl)Cl)N(Cc1ccc(-c2noc(C(F)(F)F)n2)cc1)CC1CC1` (stereo not shown) [Compound 1.232, 2.2-dichloro-N-(cyclopropylmethyl)-N-[[4-[5-(trifluoromethyl)-1,2,4-oxadiazol-3-yl]phenyl]methyl]-cyclopropane-carboxamide], for which the inhibition of growth at 20 ppm was at least 80%.
For `O=C(C1OCCO1)N(Cc1ccc(-c2noc(C(F)(F)F)n2)cc1)OCC=C(Cl)Cl` [Compound 1.547] the value was at least 80%; for `CCCCON(Cc1ccc(-c2noc(C(F)(F)F)n2)cc1)C(=O)CC` [Compound 1.588, N-butoxy-N-[[4-[5-(trifluoromethyl)-1,2,4-oxadiazol-3-yl]phenyl]methyl]-propanamide], at least 80%.

(Values after patent publication US11180462B2, “Microbiocidal oxadiazole derivatives” (SYNGENTA PARTICIPATIONS AG, priority 2015, dated 2021).)
